Source: the supplement of paper PMC11061612

Tests used:
Assay in all cases: Bliss excess, mean over the matrix (fraction); higher = more synergy
[1] = tested on: CFPAC-1 (Pancreatic Carcinoma)
In short: (§1)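 After 24 hours at 37°C and 5% CO2 in 1536-well plates, cells in DMEM/F12 or RPMI plus 10% FBS received two-drug dose matrices for 72 hours. Viability came from CellTiter-Glo 2.0 luminescence and was scaled as inhibition, anchored at 0 by vehicle wells and at 1 by blank wells. Combination Emax is taken as the second-highest inhibition in the matrix, and Bliss excess as the observed combination effect less EA + EB − EA·EB, with EA and EB the single-agent effects.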

[2] = tested on: COR-L23 (Non-Small Cell Lung Carcinoma)
In short: as §1

[3] = tested on: COR-L95 (Small Cell Lung Carcinoma)
In short: as §1

[4] = tested on: DMS-273 (Small Cell Lung Carcinoma)
In short: as §1

[5] = tested on: G-292-Clone-A141B1 (Osteosarcoma)
In short: as §1

[6] = tested on: HT-29 (Colorectal Carcinoma)
In short: as §1

J82 (Bladder Carcinoma) = tested on: J82 (Bladder Carcinoma)
In short: as §1

[7] = tested on: KARPAS-1106P (B-Cell Non-Hodgkin's Lymphoma)
In short: as §1

[8] = tested on: KM-H2 (Hodgkin's Lymphoma)
In short: as §1

[9] = tested on: MDA-MB-231 (Breast Carcinoma)
In short: as §1

[10] = tested on: MFH-ino (Other Solid Carcinomas)
In short: as §1

[11] = tested on: NCI-H1694 (Small Cell Lung Carcinoma)
In short: as §1

NCI-H2369 (Mesothelioma) = tested on: NCI-H2369 (Mesothelioma)
In short: as §1

NCI-H2595 (Mesothelioma) = tested on: NCI-H2595 (Mesothelioma)
In short: as §1

RH-1 (Ewing's Sarcoma) = tested on: RH-1 (Ewing's Sarcoma)
In short: as §1

[12] = tested on: SW1088 (Low Grade Glioma)
In short: as §1

[13] = tested on: SW1990 (Pancreatic Carcinoma)
In short: as §1

[14] = tested on: SW756 (Cervical Carcinoma)
In short: as §1

[15] = tested on: SW780 (Bladder Carcinoma)
In short: as §1

[16] = tested on: TE-5 (Esophageal Squamous Cell Carcinoma)
In short: as §1

Compound | Bliss excess [1] | Bliss excess [2] | Bliss excess [3] | Bliss excess [4] | Bliss excess [5] | Bliss excess [6] | Bliss excess (J82 (Bladder Carcinoma)) | Bliss excess [7] | Bliss excess [8] | Bliss excess [9] | Bliss excess [10] | Bliss excess [11] | Bliss excess (NCI-H2369 (Mesothelioma)) | Bliss excess (NCI-H2595 (Mesothelioma)) | Bliss excess (RH-1 (Ewing's Sarcoma)) | Bliss excess [12] | Bliss excess [13] | Bliss excess [14] | Bliss excess [15] | Bliss excess [16]
Cc1c2c(nn1C)CSCc1cc(n(C)n1)CSc1cc(c3ccccc3c1)OCCCc1c(C(=O)O)n(C)c3c-2c(Cl)ccc13 [AZD5991] + CC1(C)CCC(CN2CCN(c3ccc(C(=O)NS(=O)(=O)c4ccc(NCC5CCOCC5)c([N+](=O)[O-])c4)c(Oc4cnc5[nH]ccc5c4)c3)CC2)=C(c2ccc(Cl)cc2)C1 [Venetoclax] (first compound max 1 µM, 7x7, partner max 1 µM) | -0.0112 | -0.0178 | 0.0616 | -0.0099 | -0.0292 | -0.0015 | -0.0232 | -0.0146 | -0.0094 | 0.0126 | -0.0512 | 0.076 | -0.0027 | -0.0384 | 0.0491 | -0.0187 | -0.0317 | -0.0331 | 0.0215 | 0.037
CC1(C)CCC(CN2CCN(c3ccc(C(=O)NS(=O)(=O)c4ccc(NCC5CCOCC5)c([N+](=O)[O-])c4)c(Oc4cnc5[nH]ccc5c4)c3)CC2)=C(c2ccc(Cl)cc2)C1 [Venetoclax] + C[C@@H]1COCCN1C2=NC(=NC(=C2)C3(CC3)[S@](=N)(=O)C)C4=C5C=CNC5=NC=C4 [AZD6738] (first compound max 1 µM, 7x7, partner max 10 µM) | 0.015 | -0.0392 | -0.0056 | -0.0779 | -0.0438 | -0.0215 | 0.0106 | -0.0213 | 0.0384 | -0.0312 | -0.0926 | 0.0443 | -0.0247 | 0.0027 | -0.0158 | -0.0327 | -0.0556 | -0.0249 | -0.0299 | -0.0623
NC1(C(=O)N[C@@H](CCO)c2ccc(Cl)cc2)CCN(c2ncnc3[nH]ccc23)CC1 [Capivasertib] + C[C@@H]1COCCN1C2=NC(=NC(=C2)C3(CC3)[S@](=N)(=O)C)C4=C5C=CNC5=NC=C4 [AZD6738] (first compound max 10 µM, 7x7, partner max 10 µM) | -0.0224 | -0.0358 | -0.0644 | -0.0377 | -0.0276 | -0.0396 | -0.065 | -0.0661 | -0.0181 | -0.0598 | -0.086 | -0.0412 | -0.0127 | -0.0114 | -0.0098 | -0.0619 | -0.0259 | 0.0407 | -0.0216 | -0.0345
Cn1cnc2c(F)c(Nc3ccc(Br)cc3Cl)c(C(=O)NOCCO)cc21 [Selumetinib] + CC(C)n1c(=O)n(C)c2cnc3cc(F)c(-c4ccc(OCCCN5CCCCC5)nc4)cc3c21 [AZD1390] (first compound max 10 µM, 7x7, partner max 0.3 µM) | -0.0627 | -0.0251 | -0.016 | -0.0103 | -0.0567 | -0.0043 | 0.0142 | -0.0376 | -0.027 | 0.0101 | -0.023 | -0.0085 | -0.0442 | -0.0415 | -0.0497 | -0.0368 | -0.0434 | -0.019 | -0.0542 | -0.0317
COc1nnc2ccc(N3CCC(c4ccc(OCCN5CCN(C)C(=O)[C@H]5C)cc4)CC3)nn12 [AZD5153] + C[C@@H]1COCCN1C2=NC(=NC(=C2)C3(CC3)[S@](=N)(=O)C)C4=C5C=CNC5=NC=C4 [AZD6738] (first compound max 1 µM, 7x7, partner max 10 µM) | 0.015 | -0.0016 | -0.0357 | 0.0044 | 0.0166 | -0.0307 | 0.104 | -0.0455 | -0.008 | -0.0477 | -0.0801 | 0.008 | 0.0409 | 0.0346 | 0.0071 | 0.0059 | -0.0424 | 0.0204 | -0.0052 | -0.0316
Cc1cc2ncnn2cc1Nc1ncc2c(n1)n(C1CCOCC1)c(=O)n2C [AZD7648] + O=C(c1cc(Cc2n[nH]c(=O)c3ccccc23)ccc1F)N1CCN(C(=O)C2CC2)CC1 [Olaparib] (first compound max 10 µM, 7x7, partner max 10 µM) | -0.0567 | 0.0328 | -0.0158 | 0.0268 | -0.0855 | -0.0265 | 0.0357 | -0.0538 | -0.0127 | -0.0752 | -0.0705 | -0.0004 | -0.05 | -0.0258 | -0.0115 | -0.067 | -0.054 | -0.0174 | -0.0289 | -0.0431
COc1cccc(OCCCN)c1-c1cc(Nc2cnc(C#N)cn2)n[nH]1 [Prexasertib] + CN(C)CCCOc1ccc(-c2ccc3ncc4c(c3c2)n(C2CCOCC2)c(=O)n4C)cn1 [AZD0156] (first compound max 1 µM, 7x7, partner max 1 µM) | 0.0232 | 0.0229 | -0.0723 | -0.0183 | -0.0849 | -0.0343 | 0.0036 | -0.0308 | -0.0337 | -0.0306 | 0.0142 | -0.0433 | -0.0016 | -0.0573 | 0.0241 | -0.0241 | -0.0247 | -0.0179 | -0.0232 | 0.0016
CC1(C)CCC(CN2CCN(c3ccc(C(=O)NS(=O)(=O)c4ccc(NCC5CCOCC5)c([N+](=O)[O-])c4)c(Oc4cnc5[nH]ccc5c4)c3)CC2)=C(c2ccc(Cl)cc2)C1 [Venetoclax] + Cc1cc2ncnn2cc1Nc1ncc2c(n1)n(C1CCOCC1)c(=O)n2C [AZD7648] (first compound max 1 µM, 7x7, partner max 10 µM) | -0.0359 | -0.0351 | -0.039 | -0.0147 | -0.037 | 0.0077 | -0.0202 | -0.0672 | -0.0322 | 0.0192 | -0.0328 | -0.0247 | -0.0273 | -0.0185 | 0.0029 | -0.105 | -0.0426 | 0.0031 | -0.0035 | -0.0382
CN(C)CCCOc1ccc(-c2ccc3ncc4c(c3c2)n(C2CCOCC2)c(=O)n4C)cn1 [AZD0156] + C[C@@H]1COCCN1C2=NC(=NC(=C2)C3(CC3)[S@](=N)(=O)C)C4=C5C=CNC5=NC=C4 [AZD6738] (first compound max 1 µM, 7x7, partner max 10 µM) | -0.0137 | 0.045 | -0.0363 | 0.0084 | -0.0091 | -0.0211 | 0 | 0.0462 | 0.0658 | 0.0105 | -0.0591 | 0.0229 | -0.0253 | -0.0438 | 0.0731 | -0.0113 | -0.0202 | -0.0006 | -0.0372 | -0.0609
COc1nnc2ccc(N3CCC(c4ccc(OCCN5CCN(C)C(=O)[C@H]5C)cc4)CC3)nn12 [AZD5153] + CCN(CCO)CCCOc1ccc2c(Nc3cc(CC(=O)Nc4cccc(F)c4)[nH]n3)ncnc2c1 [AZD2811] (first compound max 1 µM, 7x7, partner max 1 µM) | -0.088 | -0.0551 | -0.0159 | -0.0409 | -0.0263 | -0.0281 | -0.0148 | 0.019 | 0 | -0.0353 | -0.0811 | 0.0041 | -0.0563 | -0.0227 | 0.0025 | -0.0669 | -0.0477 | -0.0067 | -0.0766 | -0.0124
COc1nnc2ccc(N3CCC(c4ccc(OCCN5CCN(C)C(=O)[C@H]5C)cc4)CC3)nn12 [AZD5153] + C=CCn1c(=O)c2cnc(Nc3ccc(N4CCN(C)CC4)cc3)nc2n1-c1cccc(C(C)(C)O)n1 [AZD1775] (first compound max 1 µM, partner max 1 µM) | -0.119 | -0.0459 | 0.0012 | -0.0377 | -0.0475 | -0.0532 | 0.0514 | -0.0966 | -0.101 | -0.0768 | -0.0837 | -0.0205 | -0.0392 | -0.0353 | -0.0406 | -0.0364 | -0.0567 | -0.05 | -0.0163 | -0.0148
C[C@@H](c1ccc2nccn2c1)n1nnc2ncc(-c3cnn(C)c3)nc21 [Savolitinib] + Cc1c2c(nn1C)CSCc1cc(n(C)n1)CSc1cc(c3ccccc3c1)OCCCc1c(C(=O)O)n(C)c3c-2c(Cl)ccc13 [AZD5991] (first compound max 1 µM, 7x7, partner max 1 µM) | -0.0875 | -0.048 | -0.0171 | -0.0356 | -0.0381 | -0.0297 | -0.0717 | -0.0518 | -0.0286 | -0.0186 | -0.0572 | 0.0027 | -0.0527 | -0.052 | 0.0031 | 0.021 | -0.0306 | -0.0692 | -0.0487 | -0.027
CN(CCO)CC[C@H](CSc1ccccc1)Nc1ccc(S(=O)(=O)NC(=O)c2ccc(N3CCC([C@@H](O)c4ccccc4-c4ccc(Cl)cc4)CC3)cc2)cc1S(=O)(=O)C(F)(F)F [AZD4320] + Cn1cnc2c(F)c(Nc3ccc(Br)cc3Cl)c(C(=O)NOCCO)cc21 [Selumetinib] (first compound max 1 µM, 7x7, partner max 3 µM) | 0.0453 | 0.0645 | -0.0067 | -0.0768 | -0.0021 | 0.02 | -0.0144 | -0.0007 | 0.0106 | -0.0013 | -0.03 | 0.0042 | 0.0216 | 0.04 | 0.0015 | 0.0246 | 0.0357 | 0.0022 | 0.0441 | 0.0377
COc1cccc(OCCCN)c1-c1cc(Nc2cnc(C#N)cn2)n[nH]1 [Prexasertib] + C=CCn1c(=O)c2cnc(Nc3ccc(N4CCN(C)CC4)cc3)nc2n1-c1cccc(C(C)(C)O)n1 [AZD1775] (first compound max 1 µM, partner max 1 µM) | -0.0145 | 0.047 | -0.0187 | 0.0795 | 0.028 | -0.0247 | 0.096 | -0.0047 | 0.077 | 0.124 | 0.039 | 0.13 | -0.0074 | 0.0383 | 0.0653 | -0.0156 | -0.0061 | 0.0163 | 0.0349 | -0.0245
